Measurements published in patent US8487093B2, “β-lactamase inhibitors” (Merck Sharp & Dohme Corp., priority 2008, dated 2013).
Where two headings read alike, the source gives them in different places.

Experiments:
[1] = biological target: KPC-2 (K. pneumoniae) (Klebsiella pneumoniae, UniProt Q9F663); test: biochemical
[2] = biological target: AmpC (P. aeruginosa) (Pseudomonas aeruginosa (strain ATCC 15692 / DSM 22644 / CIP 104116 / JCM 14847 / LMG 12228 / 1C / PRS 101 / PAO1), UniProt P24735); test: biochemical
Chain of AmpC (P. aeruginosa) (P24735 27-397): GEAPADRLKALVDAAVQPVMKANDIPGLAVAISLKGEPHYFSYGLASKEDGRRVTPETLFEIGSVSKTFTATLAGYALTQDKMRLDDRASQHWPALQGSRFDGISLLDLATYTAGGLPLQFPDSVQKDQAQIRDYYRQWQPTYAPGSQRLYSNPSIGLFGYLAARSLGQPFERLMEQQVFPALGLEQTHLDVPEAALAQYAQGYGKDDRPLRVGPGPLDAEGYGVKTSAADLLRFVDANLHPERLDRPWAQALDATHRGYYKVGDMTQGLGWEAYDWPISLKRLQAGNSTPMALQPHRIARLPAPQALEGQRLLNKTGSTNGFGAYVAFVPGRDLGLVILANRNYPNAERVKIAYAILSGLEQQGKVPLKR
Description: The Class C enzyme activities were measured in the presence of the test inhibitor in spectrophotometric assay against the commercially available substrate, nitrocefin. The enzyme AmpC (P. aeruginosa.), and the substrate, were dissolved in 100 mM KH2PO4 buffer (pH 7). The buffer also contains 0.005% BSA. The test inhibitor was dissolved in DMSO and diluted 1:20 in the assay, resulting in a final concentration range of 50 μM to 0.0002 μM. In a 96-well microplate, the test inhibitor was incubated with the beta-lactamase enzyme for 40 minutes at ambient temperature, the substrate solution was added, and the incubation continued for another 40 minutes. […] The IC50 value was determined from semi logarithmic plots of enzyme inhibition versus inhibitor concentration, with a curve generated using a 4-parameter fit.

[3] = Table 3, read-out: K.p. KPC-2 IC50
[4] = Table 3, read-out: P.a. AmpC IC50

Chain of KPC-2 (K. pneumoniae) (Q9F663 25-293 limits assumed): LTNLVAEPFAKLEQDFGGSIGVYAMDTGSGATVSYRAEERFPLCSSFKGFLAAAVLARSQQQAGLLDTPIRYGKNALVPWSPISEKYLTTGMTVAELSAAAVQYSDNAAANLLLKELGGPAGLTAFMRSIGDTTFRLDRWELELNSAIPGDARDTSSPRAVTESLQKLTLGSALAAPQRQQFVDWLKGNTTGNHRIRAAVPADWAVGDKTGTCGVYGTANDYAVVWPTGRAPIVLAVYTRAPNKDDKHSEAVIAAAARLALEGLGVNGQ

For O=C(NC1CCCNC1)[C@@H]1CC[C@@H]2CN1C(=O)N2OS(=O)(=O)O (single isomer, unassigned) [Example 19b], the IC50 [1, 3] was 240 nM and the IC50 [2, 4] was 480 nM.
O=C(NC1CCNC1)[C@@H]1CC[C@@H]2CN1C(=O)N2OS(=O)(=O)O (stereo in doubt) [Example 14, (2S,5R)-7-oxo-N-[(3R)-pyrrolidin-3-yl]-6-(sulfooxy)-1,6-diazabicyclo[3.2.1]octane-2-carboxamide] showed an IC50 ([1]; K.p. KPC-2 IC50, Table 3) of 355 nM and an IC50 [2, 4] of 110 nM.
O=C(N[C@H]1CCNC[C@H]1F)[C@@H]1CC[C@@H]2CN1C(=O)N2OS(=O)(=O)O [Example 15, (2S,5R)—N-[(3R,4S)-3-Fluoropiperidin-4-yl]-7-oxo-6-(sulfooxy)-1,6-diazabicyclo[3.2.1]octane-2-carboxamide] showed an IC50 [1, 3] of 130 nM and an IC50 [2] of 49 nM.
With O=C(Nc1ccc2c(c1)CCNC2)[C@@H]1CC[C@@H]2CN1C(=O)N2OS(=O)(=O)O [Example 16, (2S,5R)-7-Oxo-6-(sulfooxy)-N-(1,2,3,4-tetrahydroisoquinolin-6-yl)-1,6-diazabicyclo[3.2.1]octane-2-carboxamide] the IC50 [1, 3] was 19 nM and the IC50 [2] was 14 nM.
O=C(Nc1ccc(C2CCNCC2)cn1)[C@@H]1CC[C@@H]2CN1C(=O)N2OS(=O)(=O)O [Example 17, (2S,5R)-7-Oxo-N-(5-piperidin-4-ylpyridin-2-yl)-6-(sulfooxy)-1,6-diazabicyclo[3.2.1]octane-2-carboxamide] gave an IC50 [2, 4] of 6 nM.
With O=C(OCC1CCNCC1)[C@@H]1CC[C@@H]2CN1C(=O)N2OS(=O)(=O)O [Example 18, Piperidin-4-ylmethyl(2S,5R)-7-oxo-6-(sulfooxy)-1,6-diazabicyclo[3.2.1]octane-2-carboxylate] the IC50 [1, 3] was 10 nM and the IC50 [2, 4] was 180 nM.
For O=C(NC1CCCNC1)[C@@H]1CC[C@@H]2CN1C(=O)N2OS(=O)(=O)O (stereo partly drawn) [Example 19a], the IC50 [1, 3] was 480 nM and the IC50 [2, 4] was 64 nM.
O=C(NC1CNC1)[C@@H]1CC[C@@H]2CN1C(=O)N2OS(=O)(=O)O [Example 20] gave an IC50 [1, 3] of 17 nM and an IC50 [2, 4] of 1000 nM.
O=C(N[C@@H]1CCNC1)[C@@H]1CC[C@@H]2CN1C(=O)N2OS(=O)(=O)O [Example 21] gave an IC50 ([1]; K.p. KPC-2 IC50, Table 3) of 4300 nM and an IC50 [2, 4] of 29100 nM.
With O=C(N[C@@H]1CCCNCC1)[C@@H]1CC[C@@H]2CN1C(=O)N2OS(=O)(=O)O [Example 22] the IC50 [1, 3] was 225 nM and the IC50 [2] was 520 nM.
CN1CCC(NC(=O)[C@@H]2CC[C@@H]3CN2C(=O)N3OS(=O)(=O)O)CC1 [Example 23] showed an IC50 [1, 3] of 240 nM and an IC50 [2, 4] of 500 nM.
Work on O=C(N[C@H]1CCNC[C@@H]1F)[C@@H]1CC[C@@H]2CN1C(=O)N2OS(=O)(=O)O [Example 24] yielded an IC50 [1, 3] of 90 nM and an IC50 [2] of 110 nM.
Work on O=C(N[C@@H]1CCNC[C@@H]1F)[C@@H]1CC[C@@H]2CN1C(=O)N2OS(=O)(=O)O [Example 25] yielded an IC50 [1, 3] of 270 nM and an IC50 [2] of 20 nM.
With CO[C@H]1CNCC[C@H]1NC(=O)[C@@H]1CC[C@@H]2CN1C(=O)N2OS(=O)(=O)O [Example 26] the IC50 ([1]; K.p. KPC-2 IC50, Table 3) was 290 nM and the IC50 [2] was 120 nM.
In the case of O=C(NC1CCS(=O)(=O)CC1)[C@@H]1CC[C@@H]2CN1C(=O)N2OS(=O)(=O)O [Example 27], the IC50 [1, 3] is reported as 150 nM and the IC50 [2, 4] is reported as 9.5 nM.
For N[C@@H]1CNC[C@H]1NC(=O)[C@@H]1CC[C@@H]2CN1C(=O)N2OS(=O)(=O)O [Example 28], the IC50 [1, 3] was 660 nM and the IC50 [2, 4] was 740 nM.
O=C(N[C@@H]1CNC[C@H]1O)[C@@H]1CC[C@@H]2CN1C(=O)N2OS(=O)(=O)O [Example 29] showed an IC50 [1, 3] of 250 nM and an IC50 [2, 4] of 2500 nM.
With O=C(N[C@@H]1CNC[C@@H]1O)[C@@H]1CC[C@@H]2CN1C(=O)N2OS(=O)(=O)O [Example 30] the IC50 [1, 3] was 520 nM and the IC50 [2, 4] was 2250 nM.
Molecule O=C(N[C@@H]1CNC[C@@H]1F)[C@@H]1CC[C@@H]2CN1C(=O)N2OS(=O)(=O)O [Example 31] has an IC50 ([1]; K.p. KPC-2 IC50, Table 3) of 190 nM and an IC50 [2] of 150 nM.
With O=C(N[C@H]1CNC[C@H]1F)[C@@H]1CC[C@@H]2CN1C(=O)N2OS(=O)(=O)O [Example 32] the IC50 ([1]; K.p. KPC-2 IC50, Table 3) was 710 nM and the IC50 [2] was 19 nM.
With O=C(N[C@H]1CCN(C2CCNCC2)C1=O)[C@@H]1CC[C@@H]2CN1C(=O)N2OS(=O)(=O)O [Example 33] the IC50 [1, 3] was 21 nM and the IC50 [2] was 620 nM.
O=C(N[C@@H]1CCN(C2CCNCC2)C1=O)[C@@H]1CC[C@@H]2CN1C(=O)N2OS(=O)(=O)O [Example 34] gave an IC50 [1, 3] of 280 nM and an IC50 [2] of 45 nM.
O=C(N[C@@H]1CCCNC[C@@H]1F)[C@@H]1CC[C@@H]2CN1C(=O)N2OS(=O)(=O)O [Example 35] was tested, and the IC50 [1, 3] was 150 nM and the IC50 [2, 4] was 13 nM.
O=C(N[C@H]1CCCNC[C@H]1F)[C@@H]1CC[C@@H]2CN1C(=O)N2OS(=O)(=O)O [Example 36] gave an IC50 [1, 3] of 130 nM and an IC50 [2, 4] of 18 nM.
O=C(NCC1(F)CNC1)[C@@H]1CC[C@@H]2CN1C(=O)N2OS(=O)(=O)O [Example 37] gave an IC50 [1, 3] of 120 nM and an IC50 [2, 4] of 40 nM.
Molecule O=C(NCC1CCCN1)[C@@H]1CC[C@@H]2CN1C(=O)N2OS(=O)(=O)O (stereo partly drawn) [Example 38] has an IC50 [1, 3] of 120 nM and an IC50 [2, 4] of 250 nM.
With O=C(NCC1CCCCN1)[C@@H]1CC[C@@H]2CN1C(=O)N2OS(=O)(=O)O (stereo partly drawn) [Example 39] the IC50 [1, 3] was 190 nM and the IC50 [2, 4] was 530 nM.
Work on O=C(NCC1CCNCC1)[C@@H]1CC[C@@H]2CN1C(=O)N2OS(=O)(=O)O [Example 40] yielded an IC50 ([1]; K.p. KPC-2 IC50, Table 3) of 77 nM and an IC50 [2, 4] of 30 nM.
Work on O=C(NC(CO)C1CCNCC1)[C@@H]1CC[C@@H]2CN1C(=O)N2OS(=O)(=O)O (stereo partly drawn) [Example 41] yielded an IC50 [1, 3] of 320 nM and an IC50 [2] of 700 nM.
O=C(NC[C@@H]1CNCCCO1)[C@@H]1CC[C@@H]2CN1C(=O)N2OS(=O)(=O)O [Example 42] was tested, and the IC50 ([1]; K.p. KPC-2 IC50, Table 3) was 110 nM and the IC50 [2] was 100 nM.
For O=C(NC[C@H]1CNCCCO1)[C@@H]1CC[C@@H]2CN1C(=O)N2OS(=O)(=O)O [Example 43], the IC50 ([1]; K.p. KPC-2 IC50, Table 3) was 100 nM and the IC50 [2] was 15 nM.
O=C(NCCC1CCNCC1)[C@@H]1CC[C@@H]2CN1C(=O)N2OS(=O)(=O)O [Example 44] was tested, and the IC50 [1, 3] was 45 nM and the IC50 [2, 4] was 11 nM.
O=C(NCCN1CCCCC1)[C@@H]1CC[C@@H]2CN1C(=O)N2OS(=O)(=O)O [Example 45] was tested, and the IC50 [1, 3] was 150 nM and the IC50 [2, 4] was 180 nM.
O=C(NCCN1CCNCC1)[C@@H]1CC[C@@H]2CN1C(=O)N2OS(=O)(=O)O [Example 46] was tested, and the IC50 [1, 3] was 96 nM and the IC50 [2, 4] was 42 nM.
O=C(NC1C2CNCC21)[C@@H]1CC[C@@H]2CN1C(=O)N2OS(=O)(=O)O (stereo partly drawn) [Example 47] gave an IC50 [1, 3] of 10000 nM and an IC50 [2, 4] of 720 nM.
For CN(C(=O)[C@@H]1CC[C@@H]2CN1C(=O)N2OS(=O)(=O)O)C1CCNCC1 [Example 48], the IC50 [1, 3] was 2500 nM and the IC50 [2, 4] was 290 nM.
With NCC1CCCCN1C(=O)[C@@H]1CC[C@@H]2CN1C(=O)N2OS(=O)(=O)O (stereo partly drawn) [Example 49] the IC50 [1, 3] was 780 nM and the IC50 [2, 4] was 7500 nM.
With NC1CCN(C(=O)[C@@H]2CC[C@@H]3CN2C(=O)N3OS(=O)(=O)O)CC1 [Example 50] the IC50 [1, 3] was 8 nM and the IC50 [2, 4] was 820 nM.
Molecule O=C([C@@H]1CC[C@@H]2CN1C(=O)N2OS(=O)(=O)O)N1CCNCC1 [Example 51] has an IC50 [1, 3] of 520 nM and an IC50 [2, 4] of 2200 nM.
With O=C([C@@H]1CC[C@@H]2CN1C(=O)N2OS(=O)(=O)O)N1CC2(CCNCC2)C1 [Example 52] the IC50 [1, 3] was 1000 nM and the IC50 [2] was 590 nM.
O=C([C@@H]1CC[C@@H]2CN1C(=O)N2OS(=O)(=O)O)N1CC2CNCC2C1 (stereo partly drawn) [Example 53] was tested, and the IC50 [1, 3] was 33 nM and the IC50 [2] was 1000 nM.
